# Data published in patent US7247321B2, “Skin whitening compositions containing asparagus extract” (Access Business Group International LLC, priority 2003, dated 2007).
# System: mouse derived immortalized melanocyte cells (M3)
# Test: Suppression of melanogenesis in vitro (melanin extracted, optical density at 405 nm; visual count of melanized cells)
# Format: cell-based
# Settings: Treatment Dose 0.100%; M3 melanocytes, treated days 1, 3, 5; melanin extracted day 6, OD 405 nm
compound,measurement,value
O=C1O[C@H]([C@@H](O)CO)C(O)=C1O [Ascorbic Acid],% Control Melanin,51%
